Patent US10329518B2, “Anionic surfactants” (Novus International Inc., priority 2015, dated 2019)
Read-outs that look alike come from different tables or passages of the source.

Experiments:
[1] = Water solubility assessed visually at room temperature; type: physicochemical; conditions: in water, visual assessment
Experimental: Dowex MAC-3 resin (proton form) was swollen and neutralized with excess NaOH/water solution, and then assembled into a column. After the resin was balanced with 2 column volumes of 30 vol % water in ethanol, 1 column volume of a 0.1 g/mL acid in 30 vol % water in ethanol solution was loaded and incubated in the column for 10 min. Subsequently, the resin was rinsed with 2 column volumes of 30 vol % water in ethanol, and the eluent was collected. The pH of the 1 wt % solutions/suspensions of the solids increased from 4 to 8 after passing through the column. The solvent was then evaporated under vacuum at mild heat (40° C.) to provide the sodium carboxylate salts. The sodium salts were fully soluble in water (deionized with 18MΩ resistivity), while the starting carboxylic acids were insoluble. The solubility of the surfactants in water was assessed visually at room temperature. The mixture at each concentration was examined after at least 10 min of mild shaking and ultrasonic bath agitation to see if the surfactant completely dissolved. […] Surface tension was determined with a Wilhelmy Plate tensiometer (Cahn DCA-322) at room temperature. Glass slides manufactured by Corning with a width of 22 mm and thickness of 0.1 mm were used as probes. The motor speed was set to be 100 μm/sec. The CMC was determined from the break point of Υvs. log C diagram with a custom Microsoft Visual Basic program.

[2] = Surface tension by Wilhelmy plate tensiometer; CMC from break point of surface tension vs. log C; type: physicochemical; conditions: room temperature
Experimental: The solubility of the surfactants in water was assessed visually at room temperature. The mixture at each concentration was examined after at least 10 min of mild shaking and ultrasonic bath agitation to see if the surfactant completely dissolved. […] Surface tension was determined with a Wilhelmy Plate tensiometer (Cahn DCA-322) at room temperature. Glass slides manufactured by Corning with a width of 22 mm and thickness of 0.1 mm were used as probes. The motor speed was set to be 100 μm/sec. The CMC was determined from the break point of Υvs. log C diagram with a custom Microsoft Visual Basic program.

[3] = Krafft temperature determination; type: physicochemical; conditions: within 48 hours
Experimental: […] the solution to 4° C. and then raising the temperature by 1° C. steps and visually inspecting its phase behavior after the solution reached thermal equilibrium. For hardness tolerance, a known amount of calcium chloride was added to the solution prior to cooling to 4° C.

[4] = Hardness (calcium chloride) tolerance; type: physicochemical; conditions: for CaCl2 Tolerance / Hardness Tolerance: CaCl2 added, cooled to 4° C., heated to 25° C., visual
Experimental: The Krafft temperature of the surfactant with the concentration at the room temperature CMC was determined by cooling the solution to 4° C. and then raising the temperature by 1° C. steps and visually inspecting its phase behavior after the solution reached thermal equilibrium. For hardness tolerance, a known amount of calcium chloride was added to the solution prior to cooling to 4° C.

[5] = Draves wetting test (ASTM D2281-68); type: physicochemical
Experimental: The Draves wetting test was performed according to ASTM […]-68. 500 mL of surfactant solution was poured into a 500 mL graduated cylinder (38 cm in height), and a 5.0 g standard skein hooked with a lead anchor was dropped into the solution. The skein floats in the solution initially and sinks when wetted, and the time taken was recorded as the time of wetting.

[6] = cited from earlier work; for CMC/C20: literature value (footnotes b, d)
[7] = literature value (footnote c); cited from earlier work
[8] = literature value (footnotes a, c); cited from earlier work
[9] = literature value (footnotes a, b); cited from earlier work
[10] = Ross-Miles foam test (ASTM D1173-07); type: physicochemical; conditions: 1 wt % solution
Experimental: The Ross-Miles foam test was performed according to the test protocol described in ASTM D1173-07. […] 50 mL of each surfactant solution (1 wt %) was carefully poured into the 1 meter glass column, without creating any foam, which is called the receiver. A 200 mL pipette with the surfactant solution is placed 90 cm above the receiver and the solution is allowed to drop into the foam receiver. The height of the foam produced is measured immediately and after 5 minutes.

| Water Solubility [1] | CMC [2] [mM] | CMC/C20 [2] | pC20 [2] | ΥCMC (surface tension at CMC) [2] [mN/m] | Precipitation of 1 wt % solution in 4° C. water bath [3] | Draves wetting time of 0.1 wt % solution [5] [s] | Compound | CaCl2 Tolerance [4] [µM] | Hardness Tolerance [4] [ppm as CaCO3] | CMC/C20 [6] | also measured |
| --- | --- | --- | --- | --- | --- | --- | --- | --- | --- | --- | --- |
| 117 mM | 0.54 | 4.56 | 4.07 | 42 | did not show precipitation | – | CCCCCCCCCCCCCCCC(=O)OC(CC[S+](C)[O-])C(=O)[O-].[Na+] (centres unmarked) [C16ESOCOONa] | 100 | 10 | – | – |
| – | – | – | – | – | – | 11 | CCCCCCCCCCCCOS(=O)(=O)[O-].[Na+] [SDS, sodium dodecyl sulfate] | – | – | 2.6^d | CMC ([6]; literature value (footnote d)): 12.4^d mM; pC20 ([6]; literature value (footnote d)): 2.36^d; ΥCMC (surface tension at CMC) ([6]; literature value (footnote d)): 40^d mN/m; CaCl2 Tolerance [7]: 40^c μM; Hardness Tolerance [7]: 4^c ppm as CaCO3 |
| – | 3.1 | 5.30 | 3.24 | 34 | – | – | sodium dodecylbenzene sulfonate [SDBS, reference compound] | – | – | – | Water Solubility [8]: 575^a mM |
| >1000^ mM | 1.7 | 3.15 | 3.27 | 40 | did not show precipitation | – | CCCCCCCCCCCC(=O)OC(CC[S+](C)[O-])C(=O)[O-].[Na+] (centres unmarked) [C12ESOCOONa] | 5000 | 500 | – | Hardness tolerance (of CaCl2) ([4]; text of b163): 5000 µM; Hardness tolerance relative to the unoxidized form ([4]; versus C12ESCOONa): 50 times |
| 282 mM | 1.0 | 5.55 | 3.84 | 35 | did not show precipitation | 11 | CCCCCCCCCCCC(=O)OC(CCSC)C(=O)[O-].[Na+] (centres unmarked) [C12ESCOONa] | 100 | 10 | – | Calcium tolerance relative to the linear carboxylate (NaL) ([4]; versus NaL): approximately 2.5 orders of magnitude; Calcium tolerance relative to the linear sulfate SDS ([4]; versus SDS): about half an order of magnitude better; Draves wetting performance compared with references ([5]; 0.1 wt % solutions): outperformed NaL in wetting time with a comparable performance to SDS; Foam dissipation ([10]; foam height immediately and after 5 minutes): dissipates much faster; Foam height ([10]; versus SDS, SDBS, AES): comparable to the reference anionic surfactants |

| Compound | Water Solubility [1] | CMC [2] [mM] | CMC/C20 [2] | pC20 [2] | ΥCMC (surface tension at CMC) [2] [mN/m] | Precipitation of 1 wt % solution in 4° C. water bath [3] | Draves wetting time of 0.1 wt % solution [5] [s] | CaCl2 Tolerance [4] [µM] | Hardness Tolerance [4] [ppm as CaCO3] | CMC/C20 [6] | also measured |
| --- | --- | --- | --- | --- | --- | --- | --- | --- | --- | --- | --- |
| CCCCCCCCCCCC(=O)[O-].[Na+] [NaL, sodium laurate, reference compound] | – | 19.1 | – | 3.32 | 30 | – | 52 | 0.5 | 0.05 | 38.5^b | solubility ([1]; thermodynamic from solid): 90 mM; Krafft Point [9]: 13^a ° C. |
